Test [1] addresses CrGluCl-A (Caligus rogercresseyi, UniProt A0A1W6LZ70). The experiment in a line: Two-electrode voltage-clamp of Xenopus oocytes expressing CrGluCl-A. The class given is cell-based. To be noted: CrGluCl-A alone. Here is the method: (§1) Adult female Xenopus laevis frogs were anaesthetized by immersion in a1g/L solution tricaine (Ethyl 3-aminobenzoate methanesulfonate, Sigma) buffered to pH 7 with NaHCO3. Surgery was performed 30–40 min later, once the frog was completely anaesthetized judging by loss of reflexes. Ovarian lobes were removed through 1 cm abdominal incision and then kept at 16°C in Barth’s modified solution containing (in mM): 88 NaCl, 1 KCl, 0.4 CaCl2, 0.3 Ca (NO3)2, 0.8 MgSO4, 2.4 NaHCO3, 5 Hepes, 2.5 sodium pyruvate, 100 μg/ml gentamicin sulfate, 100 U/ml penicillin, 100 μg/ml streptomycin, 250 μg/ml amphotericin B, 0.22μm filtered and adjusted to pH 7.5 with Tris-Base. Osmolarity was brought to 220 mOsm with saccharose. The oocytes were manually defolliculated on the same day of extraction and the following day 20 ng cRNA in nuclease-free water was injected into stage V-VI oocytes using a FemtoJet microinjector (Eppendorf). Finally, the injected oocytes were stored in 96 well plates containing Barth’s modified solution and kept at 16°C until experiment day.
Current measurements at controlled membrane potentials (voltage-clamp experiments) were performed using two intracellular microelectrodes in defolliculated Xenopus oocytes previously microinjected with 20 ng of cRNA. Voltage-clamp recording was performed at room temperature using a TURBO TEC-10CX amplifier (npi electronic GmbH, Tamm, Germany) and PClamp 10.6 software (Axon Instruments, USA), 1 to 4 days after oocyte injection. The oocytes were recorded in a chamber (Model RC-1Z, Warner Instrumenst, USA) under continuous superfusion. […] Reference was an Ag-AgCl electrode connected to the bath via a 3 M KCl in 3% agar bridge. Currents were recorded continuously during the experiments without interruptions for solution changes. […] The signal filtered at 1 kHz was acquired with a Digidata 1440A Analog-to-Digital Converter and analyzed with Axon pClamp 10.6 software. […]
In general terms: Two-electrode voltage clamp is typically applied to oocytes expressing channels or transporters.

Test [2] concerns HcGluClα. Set-up: method as in PMID 7935817, PMID 8702744, PMID 25994631. To be noted: read-out: EC50 glutamate; cited from earlier work.
The test system of test [3] is AgGluCl. Set-up: method as in PMID 7935817, PMID 8702744, PMID 25994631. The settings on record: read-out: EC50 glutamate; cited from earlier work.
Test [4] deals with CrGluCl-B. The test is described as follows: Two-electrode voltage-clamp of Xenopus oocytes expressing CrGluCl-B. The class given is cell-based, Caligus rogercresseyi. The settings on record: for activation by ivermectin (EC50 Ivermectin column): CrGluCl-B WT alone, 1-3 μM ivermectin. Here is the method:
as §1
Current measurements at controlled membrane potentials (voltage-clamp experiments) were performed using two intracellular microelectrodes in defolliculated Xenopus oocytes previously microinjected with 20 ng of cRNA. Voltage-clamp recording was performed at room temperature using a TURBO TEC-10CX amplifier (npi electronic GmbH, Tamm, Germany) and PClamp 10.6 software (Axon Instruments, USA), 1 to 4 days after oocyte injection. The oocytes were recorded in a chamber (Model RC-1Z, Warner Instrumenst, USA) under continuous superfusion. […] Reference was an Ag-AgCl electrode connected to the bath via a 3 M KCl in 3% agar bridge. Currents were recorded continuously during the experiments without interruptions for solution changes. Oocytes were held at -30 mV and a voltage protocol consisting of a voltage drop to -100 mV for 25ms followed by a 360 ms ramp from -100 mV to 60mV applied with a period of 565 ms was continuously given. The signal filtered at 1 kHz was acquired with a Digidata 1440A Analog-to-Digital Converter and analyzed with Axon pClamp 10.6 software. The solution that bathed the oocytes during the electrophysiological recordings had the following composition (mM): 115 NaCl, 2 KCl, 1.8 CaCl2, 1 MgCl2, 10 HEPES pH 7.5 obtained with NaOH. For the low chloride solution, all the NaCl was replaced with the gluconate salt of Na. This decreases chloride concentration from 122.6 to 7.6 mM while increasing that of gluconate from 0 to 115 mM. The stock solutions of the drugs in dimethyl sulfoxide (DMSO) were: 10 mM emamectin, 10 mM ivermectin, 100 mM picrotoxin. These were diluted in bath solution to obtain final concentrations.
The currents were normalized according to the extrapolated maximum current delivered by the Hill adjustment. In this way, the concentration that generates 50% of the maximum effect (EC50) and the Hill coefficient (nH) for each situation were obtained.

Test [5] relates to CrGluCl-B M340T mutant. The test is described as follows: Voltage-clamp of oocytes expressing CrGluCl-B M340T mutant. The format is cell-based, Caligus rogercresseyi. To be noted: 1 μM ivermectin. An excerpt:
(§2) To identify putative GluCl subunits, we queried the NCBI Transcriptome Shotgun Assembly Sequence (TSA) Database for “glutamate-gated chloride channel Caligus”. The obtained sequences were translated and BLASTed (tBLASTn) against the C. rogercresseyi genome (WGS, BioProject ID 280098, NCBI) and against transcripts of L. salmonis database (https://licebase.org/). Primers for each of the putative new subunit found were designed to span the full length of the open reading frame (ORF) for each of them (B-E) (S1 Table, and arrows in Fig 1). Complete cDNAs were generated by RT-PCR from adult C. rogercresseyi samples from which putative full-length peptide sequences of CrGluCl-B, CrGluCl-C, CrGluCl-D and CrGluCl-E were obtained. Each PCR product was cloned in pGEM-T easy vector and sequenced. […]
(§3) Current measurements at controlled membrane potentials (voltage-clamp experiments) were performed using two intracellular microelectrodes in defolliculated Xenopus oocytes previously microinjected with 20 ng of cRNA. […] The oocytes were recorded in a chamber (Model RC-1Z, Warner Instrumenst, USA) under continuous superfusion. […] Currents were recorded continuously during the experiments without interruptions for solution changes. […] The signal filtered at 1 kHz was acquired with a Digidata 1440A Analog-to-Digital Converter and analyzed with Axon pClamp 10.6 software. […]

Test [6] concerns CrGluCl-B Y361F mutant. The experiment in a line: Voltage-clamp of oocytes expressing CrGluCl-B Y361F mutant. The class given is cell-based, Caligus rogercresseyi. To be noted: 1 μM ivermectin, one-sample t-test.
From the text: as §2, §3

“And” between values parts separate entries of the source, which are not always exact repeats. Identical values can stand only once. “Also recorded” adds a separate entry of the source. Like-named read-outs stand apart in the source and are kept apart here.

Sequence of CrGluCl-A (A0A1W6LZ70 entry or part of it): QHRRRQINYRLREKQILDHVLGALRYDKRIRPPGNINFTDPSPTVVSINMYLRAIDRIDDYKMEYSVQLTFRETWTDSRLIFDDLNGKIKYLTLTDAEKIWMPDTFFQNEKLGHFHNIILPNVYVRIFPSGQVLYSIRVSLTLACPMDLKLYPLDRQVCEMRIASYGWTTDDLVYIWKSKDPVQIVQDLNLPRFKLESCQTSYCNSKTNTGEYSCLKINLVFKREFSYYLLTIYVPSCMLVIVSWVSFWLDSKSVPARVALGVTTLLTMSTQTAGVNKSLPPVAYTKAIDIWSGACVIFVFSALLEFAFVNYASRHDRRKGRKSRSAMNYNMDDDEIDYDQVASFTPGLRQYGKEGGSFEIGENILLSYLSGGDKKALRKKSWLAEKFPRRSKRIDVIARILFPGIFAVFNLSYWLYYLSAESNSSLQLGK

Consider `N[C@@H](CCC(=O)O)C(=O)O` [glutamate, L-glutamate], for which, in test [1] (60 mV), the “nH (glutamate)” value is 1.65 ± 0.63. For the same compound, the EC50 (in general, the concentration at which the effect is half-maximal) in test [1] (EC50 Glutamate, currents at 60 mV, Hill fit) is 7.2 ± 2.7 µM; in test [2] it was 28 µM; in test [3] it was 30 µM.
Consider ivermectin, for which the “current evoked by glutamate after ivermectin treatment” value in test [4] (1 mM glutamate after 1 μM ivermectin, CrGluCl-B) stood at 1.70 ± 1.69 μA. For the same compound, the “activation by ivermectin (EC50 Ivermectin column)” value in test [4] is “without effect”; in test [4] (listed as Ivermectin), “no effect; also recorded: Insensitive”. The “nH (ivermectin inhibition)” value in test [4] (CrGluCl-B, 3 mM glutamate) is -2.2 ± 0.5 and -2.2. The IC50 (commonly the concentration that gives 50% inhibition) in test [4] (CrGluCl-B, as restated in discussion, read-out: IC50 ivermectin inhibition of glutamate-activated current) was found to be 0.34 µM; in test [4] (CrGluCl-B, continuous 3 mM glutamate, read-out: IC50 ivermectin antagonism of glutamate-elicited current), 0.342 ± 0.114 µM. The “effect of ivermectin on current” value in test [5] is given as “no effect”; in test [6], “small but significant effects”.

The values are drawn from publication PMC10038264, “A new family of glutamate-gated chloride channels in parasitic sea louse Caligus rogercresseyi: A subunit refractory to activation by ivermectin is dominant in heteromeric assemblies” (PLOS Pathogens, 2023).
